Measurements reported in patent US7625411B2, “Insecticidally treated fabric having improved wash durability and insecticidal efficacy and method for its production” (Piedmont Chemical Industries I, LLC, priority 2004, dated 2009).

Assay: Wash durability of permethrin-treated polyester fabric: accelerated laundering (AATCC Test Method 61-1996), solvent extraction, gas chromatography
Format: physicochemical
Settings: without the binder system, just after the first wash
Protocol: A polyester warp fleece weighing approximately 7.6 oz. per linear yard was used in this trial. Based on the weight of the fabric, calculating the percent wet pick-up the of fabric using production sqeeze pressures in the pad application, and the amount of permethrin target (1.25 g/m^2), the quantity of permethrin to be added to the pad bath was calculated using the above equation to be 1.68%. […] The fabric was padded and dried at a normal drying temperature for polyester (330 to 350° F.).
After the application of permethrin to the fabric, samples of the treated fabric were extracted with toluene according to the procedure outlined below in order to determine the amount of permethrin loaded onto the fabric. A swatch of fabric measuring approximately two feet by two feet is cut from the treated roll of fabric. From that swatch, 3 smaller pieces measuring 10 cm by 10 cm, were cut and used for extraction of permethrin. Each 10 by 10 swatch was placed in a 250 ml flat-bottomed flask, and from 50-75 ml of an extraction solvent (e.g., 1,1,1-trichloroethane) was added thereto. The flask was then equipped with a reflux condenser and placed on a hot plate and allowed to reflux for 0.5-0.75 hr. Once the samples have finished refluxing and have cooled, 0.05mg/ml of dioctylphthalate (“DOP”) is added to the liquid fraction as an internal standard for gas chromatography (“gc”). […]

CC1(C)C(C=C(Cl)Cl)C1C(=O)OCc1cccc(Oc2ccccc2)c1 (centres unmarked) [permethrin]
permethrin remaining in the fabric: 0.20-0.30 g/m^2 | permethrin washed out of the fabric, of the initial amount loaded: 60-80%
